The record followed here is patent US20180325861A1, “NOVEL CANNABINOID FORMULATIONS” (priority 2015, published 2018).

Read-outs that look alike come from different tables or passages of the source. Marks after values point to notes of the source that are not given here.

Series [1] in a line: Combinatory PNL formulations with cyclosporine (2.2.1). Format: physicochemical. Conditions: for dissolution in the cyclosporine formulation: 50 and 100 mg added to cyclosporine solution, visual, after refrigeration. The procedure: The mixtures were examined visually for complete dissolution, precipitation after 24 hours at refrigeration and for particle size when added to water.
The particle size of the formulations, when added to water, was above 100 nm, compared to the original formulation, as determined by transmission UV at 550 nm turbidity test.
Extensive testing and adjustments were required to design a formulation that could fit two or more agents in a single formulation.

How the values of series [2] were obtained: Formulations prepared by mixing the dry solid powder of the tested compound in either the blank formulation to form 5% w/v or in a formulation already containing 5% w/w CBD. Particle size was determined by particle size analyzer.
The nature of series [3]: Preliminary screening for maximum CBD loading. Format: physicochemical.

`C[C@@H]1[C@H](O)[C@@H](C)/C=C/C=C/C=C/C=C/C=C/C=C/C=C/[C@H](O[C@@H]2O[C@H](C)[C@@H](O)[C@H](N)[C@@H]2O)C[C@@H]2O[C@](O)(C[C@@H](O)C[C@@H](O)[C@H](O)CC[C@@H](O)C[C@@H](O)CC(=O)O[C@H]1C)C[C@H](O)[C@H]2C(=O)O` [Amphitericin B]: the “dissolution in the cyclosporine formulation” value in series [1] is given as “did not fully dissolve”.

On to `CCOC(=O)c1ccc(N)cc1` [Benzocaine], for which, in series [2] (3 hr after dissolution), the PDI stood at 0.449, the Particle size amounted to 62.22 nm and the Visual result was “clear”. In series [2] (after 13 days in 4 C), the PDI came out at 0.479, the Particle size was 65.82 nm and the Visual result is given as “clear”.

For the compound `C=C(C)[C@@H]1CCC(C)=C[C@H]1c1c(O)cc(CCCCC)cc1O` [CBD, Cannabidiol], the “maximum CBD load allowing formation of clear solution” value in series [3] is 10-12.5%. Also, the “appearance in the cyclosporine solution” value in series [1] (CBD at 50 mg) is recorded as “clear solution”.

As for `O=C(N[C@H](CO)[C@H](O)c1ccc([N+](=O)[O-])cc1)C(Cl)Cl` [Chloramphenicol], in series [2] (3 hr after dissolution), the PDI was determined as 0.118, the Particle size was 30.03 nm and the Visual result is recorded as “clear”. Also, in series [2] (after 13 days in 4 C), the PDI was determined as 0.172, the Particle size came to 29.64 nm and the Visual result is on record as “clear”.

As for `CC(C)CCC[C@@H](C)[C@H]1CC[C@H]2[C@@H]3CC=C4C[C@@H](O)CC[C@]4(C)[C@H]3CC[C@]12C` [Cholesterol], in series [2] (3 hr after dissolution), the PDI is listed as 0.487**, the Particle size was 96.43 nm and the Visual result was “turbid”. For the same compound, in series [2] (after 13 days in 4 C), the PDI was 0.516, the Particle size is on record as 86.94 nm and the Visual entry is “turbid”.

On to `CC(C)Cc1ccc(C(C)C(=O)O)cc1` (centres unmarked) [Ibuprofen], for which, in series [2] (3 hr after dissolution), the PDI amounted to 0.398, the Particle size worked out at 74.28 nm and the Visual entry is on record as “clear”. For the same compound, in series [2] (after 13 days in 4 C), the PDI is 0.367, the Particle size is 67.86 nm and the Visual entry was “clear”.

In the case of `CC(=O)O[C@H]1C(=O)[C@@]2(C)[C@H]([C@H](OC(=O)c3ccccc3)[C@]3(O)C[C@H](OC(=O)[C@H](O)[C@@H](NC(=O)c4ccccc4)c4ccccc4)C(C)=C1C3(C)C)[C@]1(OC(C)=O)CO[C@@H]1C[C@@H]2O` [Paclitxel], in series [1], the “dissolution in the cyclosporine formulation” value is given as “did not fully dissolve”. Besides, in series [2], the “Solubility in PNL with 5% CBD” value is given as “~”. In addition, the Particle size in series [2] (3 hr after dissolution) is listed as ~50 nm. Also, the Visual result in series [2] (3 hr after dissolution) is “clear”; in series [2] (after 13 days in 4 C) it was “precipitate”.
